From ChEMBL document CHEMBL1201862, “PubChem BioAssay data set” (2004)
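Exposure lasted 48 hours, with cells grown in 96-well plates and compounds tested at five concentrations. GI50 marks 50% less growth.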 Calls of active or inactive are those of the source. Cut-off read from the data, not from the text of the source: active = GI50 up to about 1.1 µM and inactive = higher.

What was measured:
Test in all cases: growth of human tumour cells (NCI), 48 h
[1] = test system: A549
[2] = test system: COLO 205
[3] = test system: HCT-15
[4] = test system: HT-29
[5] = test system: IGROV-1
[6] = test system: K562
[7] = test system: LOX IMVI
[8] = test system: M14
[9] = test system: MDA-MB-435
[10] = test system: NCI-H460
[11] = test system: NCI/ADR-RES
[12] = test system: OVCAR-5
[13] = test system: RXF 393
[14] = test system: SF-268
[15] = test system: SF-295
[16] = test system: SK-MEL-2
[17] = test system: SK-MEL-5
[18] = test system: SK-OV-3
[19] = test system: UACC-257

Structure (SMILES) | GI50 [1] | GI50 [2] | GI50 [3] [µM] | GI50 [4] | GI50 [5] | GI50 [6] | GI50 [7] | GI50 [8] | GI50 [9] | GI50 [10] | GI50 [11] | GI50 [12] | GI50 [13] | GI50 [14] | GI50 [15] | GI50 [16] | GI50 [17] | GI50 [18] | GI50 [19]
O=C(ON=c1c2ccccc2ccc2ccccc12)c1ccccc1 | 29.7 µM (inactive) | 18.1 µM (inactive) | 29.7 | 28.2 µM (inactive) | 24 µM (inactive) | 8.81 µM (inactive) | 18.4 µM (inactive) | 18.1 µM (inactive) | 20.7 µM (inactive) | 43.2 µM (inactive) | 21.2 µM (inactive) | 60.8 µM (inactive) | 17.9 µM (inactive) | 35.6 µM (inactive) | 35.7 µM (inactive) | 30.1 µM (inactive) | 16.2 µM (inactive) | 56 µM (inactive) | 27.6 µM (inactive)
CC(C)C(C/C=C1/CC(CO)(COC(=O)CC(C(C)C)C(C)C)OC1=O)C(C)C (stereo not drawn) | 0.298 µM (active) | 0.0811 µM (active) | 15.6 | 16.3 µM (inactive) | 17.1 µM (inactive) | 0.389 µM (active) | 5.27 µM (inactive) | 12.5 µM (inactive) | 0.475 µM (active) | 2.44 µM (inactive) | 16 µM (inactive) | 9.42 µM (inactive) | 11.1 µM (inactive) | 10.6 µM (inactive) | 0.259 µM (active) | 15.2 µM (inactive) | 10.4 µM (inactive) | 16.7 µM (inactive) | 16 µM (inactive)
CCN(CC)c1ccc(/C=C/C(=O)c2cc(C(C)(C)C)c(O)c(C(C)(C)C)c2)cc1 | 19.6 µM (inactive) | 4.62 µM (inactive) | 21.1 | 2.71 µM (inactive) | 64 µM (inactive) | 8.45 µM (inactive) | 5.78 µM (inactive) | 21.2 µM (inactive) | 3.21 µM (inactive) | 14.9 µM (inactive) | 4.38 µM (inactive) | 5.26 µM (inactive) | 2.7 µM (inactive) | 7.45 µM (inactive) | 2.6 µM (inactive) | 6.76 µM (inactive) | 16.3 µM (inactive) | 28.2 µM (inactive) | 6.85 µM (inactive)
O=C1C=CC2(C=C1)O[C@H](CCc1ccccc1)[C@@H](CCc1ccccc1)O2 | 43.7 µM (inactive) | > 100 µM (inactive) | > 100 | > 100 µM (inactive) | 98.9 µM (inactive) | > 100 µM (inactive) | 12.3 µM (inactive) | > 100 µM (inactive) | 27.9 µM (inactive) | > 100 µM (inactive) | > 100 µM (inactive) | > 100 µM (inactive) | 24.3 µM (inactive) | 61.8 µM (inactive) | > 100 µM (inactive) | > 100 µM (inactive) | > 100 µM (inactive) | > 100 µM (inactive) | > 100 µM (inactive)
CC(C)(C)COS(=O)OCC(C)(C)C | > 100 µM (inactive) | > 100 µM (inactive) | > 100 | > 100 µM (inactive) | > 100 µM (inactive) | > 100 µM (inactive) | > 100 µM (inactive) | > 100 µM (inactive) | > 100 µM (inactive) | > 100 µM (inactive) | > 100 µM (inactive) | > 100 µM (inactive) | > 100 µM (inactive) | > 100 µM (inactive) | > 100 µM (inactive) | > 100 µM (inactive) | > 100 µM (inactive) | > 100 µM (inactive) | > 100 µM (inactive)
Cc1ccc(S(=O)(=O)NC(=O)NCC(=O)NCC(=O)O)cc1 | > 100 µM (inactive) | > 100 µM (inactive) | > 100 | > 100 µM (inactive) | > 100 µM (inactive) | > 100 µM (inactive) | > 100 µM (inactive) | > 100 µM (inactive) | > 100 µM (inactive) | > 100 µM (inactive) | > 100 µM (inactive) | > 100 µM (inactive) | > 100 µM (inactive) | > 100 µM (inactive) | > 100 µM (inactive) | > 100 µM (inactive) | > 100 µM (inactive) | > 100 µM (inactive) | > 100 µM (inactive)
N=C(N)N/N=C/c1c(-c2ccc(Cl)cc2)nc2sccn12 | 1.64 µM (inactive) | 1.46 µM (inactive) | 2.54 | 1.69 µM (inactive) | 1.85 µM (inactive) | 2.18 µM (inactive) | 1.65 µM (inactive) | 1.63 µM (inactive) | 1.74 µM (inactive) | 1.76 µM (inactive) | 5.4 µM (inactive) | 2.3 µM (inactive) | 1.35 µM (inactive) | 1.8 µM (inactive) | 1.64 µM (inactive) | 1.95 µM (inactive) | 1.65 µM (inactive) | 2.66 µM (inactive) | 1.95 µM (inactive)
CN(C)c1ccc(/C=C(\NC(=O)c2ccccc2)C(=O)NC(CCC(=O)O)C(=O)O)cc1 (stereo not drawn) | > 100 µM (inactive) | > 100 µM (inactive) | > 100 | > 100 µM (inactive) | > 100 µM (inactive) | > 100 µM (inactive) | > 100 µM (inactive) | > 100 µM (inactive) | > 100 µM (inactive) | > 100 µM (inactive) | > 100 µM (inactive) | > 100 µM (inactive) | > 100 µM (inactive) | > 100 µM (inactive) | > 100 µM (inactive) | > 100 µM (inactive) | > 100 µM (inactive) | > 100 µM (inactive) | > 100 µM (inactive)
CCc1nc(N)nc(N)c1-c1ccc(N2CCNCC2)cc1 | 54.3 µM (inactive) | 18.9 µM (inactive) | 54.5 | 38.6 µM (inactive) | 64.7 µM (inactive) | 24.2 µM (inactive) | 39.7 µM (inactive) | 34.9 µM (inactive) | 59.8 µM (inactive) | 33.1 µM (inactive) | > 100 µM (inactive) | > 100 µM (inactive) | 64.9 µM (inactive) | 84.7 µM (inactive) | 79.6 µM (inactive) | > 100 µM (inactive) | 19.8 µM (inactive) | > 100 µM (inactive) | 33.2 µM (inactive)
NCCCCNCCCN1CC1 | 4.94 µM (inactive) | 0.871 µM (active) | 4.91 | 4.55 µM (inactive) | 2.77 µM (inactive) | 1.75 µM (inactive) | 0.284 µM (active) | 2.89 µM (inactive) | 1.15 µM (inactive) | 5.5 µM (inactive) | 1.16 µM (inactive) | 5.27 µM (inactive) | 0.123 µM (active) | 0.957 µM (active) | 4.09 µM (inactive) | 0.752 µM (active) | 1.71 µM (inactive) | 0.977 µM (active) | 5.06 µM (inactive)
CCN(CC)CCOC(=O)Cc1cccc2c(=O)cc(-c3ccccc3)oc12 | 6.62 µM (inactive) | 38.4 µM (inactive) | 18.5 | 44.1 µM (inactive) | 44.6 µM (inactive) | 40.3 µM (inactive) | 29.6 µM (inactive) | 41.7 µM (inactive) | 55.1 µM (inactive) | 10.2 µM (inactive) | 50 µM (inactive) | 57.9 µM (inactive) | 41.5 µM (inactive) | 47.2 µM (inactive) | 55.6 µM (inactive) | > 150 µM (inactive) | 32 µM (inactive) | 48.5 µM (inactive) | 54.3 µM (inactive)
CCOc1cc2oc(C)cc(=O)c2c(OC)c1/C=N/c1ccc(Cn2c(C)nc3ccccc32)cc1 | > 100 µM (inactive) | > 100 µM (inactive) | > 100 | > 100 µM (inactive) | > 100 µM (inactive) | > 100 µM (inactive) | > 100 µM (inactive) | > 100 µM (inactive) | > 100 µM (inactive) | > 100 µM (inactive) | > 100 µM (inactive) | > 100 µM (inactive) | > 100 µM (inactive) | > 100 µM (inactive) | > 100 µM (inactive) | > 100 µM (inactive) | > 100 µM (inactive) | > 100 µM (inactive) | > 100 µM (inactive)
CCOP(=O)(OCC)/C(C#N)=C(\C)c1ccco1 | > 10 µM (inactive) | > 10 µM (inactive) | > 10 | > 10 µM (inactive) | > 10 µM (inactive) | > 10 µM (inactive) | > 10 µM (inactive) | > 10 µM (inactive) | > 10 µM (inactive) | > 10 µM (inactive) | > 10 µM (inactive) | > 10 µM (inactive) | > 10 µM (inactive) | > 10 µM (inactive) | > 10 µM (inactive) | > 10 µM (inactive) | > 10 µM (inactive) | > 10 µM (inactive) | > 10 µM (inactive)
CCCCCCCCCCCCOP(=O)(O)OCC(N)C(=O)O (stereo not drawn) | 24.7 µM (inactive) | > 100 µM (inactive) | 17 | 43.3 µM (inactive) | 35.6 µM (inactive) | 29.5 µM (inactive) | 20.4 µM (inactive) | 68.1 µM (inactive) | 18.2 µM (inactive) | 13.6 µM (inactive) | 36.3 µM (inactive) | 40.8 µM (inactive) | 21 µM (inactive) | 26.8 µM (inactive) | 15.7 µM (inactive) | 22.8 µM (inactive) | 23.4 µM (inactive) | 17.1 µM (inactive) | 37.2 µM (inactive)
CN(C)C(=O)C(F)(F)C(c1ccccc1Br)C1C(=O)N(C)C(=O)N(C)C1=O (stereo not drawn) | > 100 µM (inactive) | > 100 µM (inactive) | > 100 | – | – | > 100 µM (inactive) | > 100 µM (inactive) | > 100 µM (inactive) | > 100 µM (inactive) | > 100 µM (inactive) | > 100 µM (inactive) | > 100 µM (inactive) | > 100 µM (inactive) | > 100 µM (inactive) | > 100 µM (inactive) | > 100 µM (inactive) | > 100 µM (inactive) | > 100 µM (inactive) | > 100 µM (inactive)
